Target: T1, BmaDAF-12 (Brugia malayi, UniProt A0A4E9F2L4, R841H)
T1 sequence (A0A4E9F2L4 639-880 R841H): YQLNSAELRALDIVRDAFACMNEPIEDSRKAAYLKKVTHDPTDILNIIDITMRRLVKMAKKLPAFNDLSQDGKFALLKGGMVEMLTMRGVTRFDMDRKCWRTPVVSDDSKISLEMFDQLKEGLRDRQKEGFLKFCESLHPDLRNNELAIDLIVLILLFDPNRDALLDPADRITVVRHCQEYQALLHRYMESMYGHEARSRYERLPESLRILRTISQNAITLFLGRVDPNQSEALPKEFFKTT
Assay: cell-based

## CC(CCCC(C)C1CCC2C3=CCC4CC(=O)CCC4(C)C3CCC21C)C(=O)O [Δ7-dafachronic acid, (25S)-Δ7-dafachronic acid]
  EC50: 1.8 nM

Reference: PMC10313052, “Filarial DAF-12 sense the host serum to resume iL3 development during infection” (PLOS Pathogens, 2023)
